From US12344597B2, “Alkoxy-substituted pyridinyl derivatives as LPA1 receptor antagonists and their use in the treatment of fibrosis” (IDORSIA PHARMACEUTICALS LTD, priority 2018, dated 2025)

The compounds below were run against human LPA1 receptor (Homo sapiens (Human), UniProt Q92633) (assay: Beta-arrestin recruitment assay to determine IC50 values for human LPAR1). Conditions: antagonist mode, Tango EDG2-bla U2OS cells, LPA 18:1 500 nM final.
Chain of human LPA1 receptor (Q92633 whole entry): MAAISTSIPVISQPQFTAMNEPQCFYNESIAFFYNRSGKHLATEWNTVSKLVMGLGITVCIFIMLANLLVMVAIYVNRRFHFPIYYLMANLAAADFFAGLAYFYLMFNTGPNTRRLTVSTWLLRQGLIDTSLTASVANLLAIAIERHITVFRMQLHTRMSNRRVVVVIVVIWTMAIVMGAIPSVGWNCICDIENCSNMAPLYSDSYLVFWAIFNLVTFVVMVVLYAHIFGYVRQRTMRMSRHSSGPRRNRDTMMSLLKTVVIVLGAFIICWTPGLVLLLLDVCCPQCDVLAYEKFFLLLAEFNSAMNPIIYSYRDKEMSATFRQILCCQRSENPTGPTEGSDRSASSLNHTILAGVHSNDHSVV
Format: cell-based
In short: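 Antagonist IC50 = concentration giving 50% inhibition of maximal LPA response. Read-out is beta-lactamase reporter activity after arrestin-protease recruitment in U2OS cells bearing LPA1-TEV-Gal4-VP16 construct; cells pre-incubated 20 h, 37 °C, 5% CO2.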
CC(C)c1cccnc1C1(C(=O)Nc2ncc(Cl)cc2OC(F)F)CNC1 [Ex 77, N-(5-chloro-3-(difluoromethoxy)pyridin-2-yl)-3-(3-isopropylpyridin-2-yl)azetidine-3-carboxamide] was tested, and the IC50 was 1030 nM. In the case of Cc1ccc(NC(=O)C2(c3ccccc3C(C)C)CN(CCC(C)(C)C(=O)NS(C)(=O)=O)C2)c(OC(F)F)n1 [Ex 53, N-(2-(difluoromethoxy)-6-methylpyridin-3-yl)-1-(3,3-dimethyl-4-(methylsulfonamido)-4-oxobutyl)-3-(2-isopropylphenyl)azetidine-3-carboxamide], the IC50 is reported as 17 nM. Cc1ccc(NC(=O)C2(c3ccccc3C(C)C)CN(C(=O)C3(CC(=O)O)COC3)C2)c(OC(F)F)n1 [Ex 12-99, 2-(3-(3-((2-(difluoromethoxy)-6-methylpyridin-3-yl)carbamoyl)-3-(2-isopropylphenyl)azetidine-1-carbonyl)oxetan-3-yl)acetic acid] was tested, and the IC50 was 16 nM. Cc1ccc(NC(=O)C2(c3ncccc3C(C)C)CN(c3nc(C)ccc3F)C2)c(OC(F)F)n1 [Ex 65, N-(2-(difluoromethoxy)-6-methylpyridin-3-yl)-1-(3-fluoro-6-methylpyridin-2-yl)-3-(3-isopropylpyridin-2-yl)azetidine-3-carboxamide] gave an IC50 of 37 nM. Compound Cc1ccc(NC(=O)C2(c3ccccc3C(C)C)CN(Cc3cccc(C(=O)O)n3)C2)c(OC(F)F)n1 [Ex 11-46, 6-((3-((2-(difluoromethoxy)-6-methylpyridin-3-yl)carbamoyl)-3-(2-isopropylphenyl)azetidin-1-yl)methyl)picolinic acid] has an IC50 of 17 nM. In the case of Cc1ccc(NC(=O)C2(c3ccccc3C(C)C)CN(S(=O)(=O)CC3(C(=O)O)COC3)C2)c(OC(F)F)n1 [Ex 13-16, 3-(((3-((2-(difluoromethoxy)-6-methylpyridin-3-yl)carbamoyl)-3-(2-isopropylphenyl)azetidin-1-yl)sulfonyl)methyl)oxetane-3-carboxylic acid], the IC50 is reported as 16 nM. Compound Cc1ccc(NC(=O)C2(c3ccccc3C(C)C)CN(Cc3c[nH]nc3C(=O)O)C2)c(OC(F)F)n1 [Ex 11-38, 4-((3-((2-(difluoromethoxy)-6-methylpyridin-3-yl)carbamoyl)-3-(2-isopropylphenyl)azetidin-1-yl)methyl)-1H-pyrazole-3-carboxylic acid] has an IC50 of 270 nM. Cc1ccc(NC(=O)C2(c3ccccc3C(C)C)CN(S(=O)(=O)NC3CC3)C2)c(OC(F)F)n1 [Ex 15-13, 1-(N-cyclopropylsulfamoyl)-N-(2-(difluoromethoxy)-6-methylpyridin-3-yl)-3-(2-isopropylphenyl)azetidine-3-carboxamide] showed an IC50 of 11 nM. In the case of Cc1ccc(NC(=O)C2(c3c(F)cccc3C(C)C)CNC2)c(OC(F)F)n1 [Ex 36, N-(2-(difluoromethoxy)-6-methylpyridin-3-yl)-3-(2-fluoro-6-isopropylphenyl)azetidine-3-carboxamide], the IC50 is reported as 8 nM. Cc1ccc(NC(=O)C2(c3ccccc3C(C)C)CN(c3ncc(F)cn3)C2)c(OC(F)F)n1 [Ex 18-33, N-(2-(difluoromethoxy)-6-methylpyridin-3-yl)-1-(5-fluoropyrimidin-2-yl)-3-(2-isopropylphenyl)azetidine-3-carboxamide] gave an IC50 of 3 nM. In the case of CCOC(=O)CCN1CC(C(=O)Nc2ccc(C)nc2OC(F)F)(c2ccccc2C(C)C)C1 [Ex 11-13, ethyl 3-(3-((2-(difluoromethoxy)-6-methylpyridin-3-yl)carbamoyl)-3-(2-isopropylphenyl)azetidin-1-yl)propanoate], the IC50 is reported as 16 nM. Work on Cc1ccc(NC(=O)C2(c3ccccc3C(C)C)CN(C(=O)C[C@@H]3COCCN3)C2)c(OC(F)F)n1 [Ex 12-45, (R)-N-(2-(difluoromethoxy)-6-methylpyridin-3-yl)-3-(2-isopropylphenyl)-1-(2-(morpholin-3-yl)acetyl)azetidine-3-carboxamide] yielded an IC50 of 61 nM. CC(=O)NS(=O)(=O)N1CC(C(=O)Nc2cccnc2OC(F)F)(c2ccccc2C(C)C)C1 [Ex 16-2, 1-(N-acetylsulfamoyl)-N-(2-(difluoromethoxy)pyridin-3-yl)-3-(2-isopropylphenyl)azetidine-3-carboxamide] was tested, and the IC50 was 158 nM. With CC(C)c1ccccc1C1(C(=O)Nc2cccnc2OC(F)F)CN(c2ccc(C#N)cn2)C1 [Ex 18-23, 1-(5-cyanopyridin-2-yl)-N-(2-(difluoromethoxy)pyridin-3-yl)-3-(2-isopropylphenyl)azetidine-3-carboxamide] the IC50 was 4 nM. In the case of Cc1ccc(NC(=O)C2(c3ccccc3C(C)C)CN(C(=O)CNC(C)(C)CC(=O)O)C2)c(OC(F)F)n1 [Ex 47, 3-((2-(3-((2-(difluoromethoxy)-6-methylpyridin-3-yl)carbamoyl)-3-(2-isopropylphenyl)azetidin-1-yl)-2-oxoethyl)amino)-3-methylbutanoic acid], the IC50 is reported as 95 nM. Work on Cc1ccc(NC(=O)C2(c3ccccc3C(C)C)CN(C(=O)[C@H](C)N)C2)c(OC(F)F)n1 [Ex 12-33, 1-(L-alanyl)-N-(2-(difluoromethoxy)-6-methylpyridin-3-yl)-3-(2-isopropylphenyl)azetidine-3-carboxamide] yielded an IC50 of 10 nM. In the case of CC(C)c1ccccc1C1(C(=O)Nc2ncc(Cl)cc2OC(F)F)CN(C(=O)NC2CC2)C1 [Ex 82-1, N3-(5-chloro-3-(difluoromethoxy)pyridin-2-yl)-N1-cyclopropyl-3-(2-isopropylphenyl)azetidine-1,3-dicarboxamide], the IC50 is reported as 3 nM. In the case of Cc1ccc(C2(C(=O)Nc3ccc(C)nc3OC(F)F)CNC2)c(C(C)C)c1 [Ex 35, N-(2-(difluoromethoxy)-6-methylpyridin-3-yl)-3-(2-isopropyl-4-methylphenyl)azetidine-3-carboxamide], the IC50 is reported as 75 nM. Cc1ccc(NC(=O)C2(c3ccccc3C(C)C)CN(S(=O)(=O)NCCO)C2)c(OC(F)F)n1 [Ex 15-3, N-(2-(difluoromethoxy)-6-methylpyridin-3-yl)-1-(N-(2-hydroxyethyl)sulfamoyl)-3-(2-isopropylphenyl)azetidine-3-carboxamide] gave an IC50 of 11 nM. With Cc1ccc(NC(=O)C2(c3ccccc3C(C)C)CN(C3=NC(=O)CO3)C2)c(OC(F)F)n1 [Ex 19, N-(2-(difluoromethoxy)-6-methylpyridin-3-yl)-3-(2-isopropylphenyl)-1-(4-oxo-4,5-dihydrooxazol-2-yl)azetidine-3-carboxamide] the IC50 was 4 nM. Cc1ccc(NC(=O)C2(c3ccccc3C(C)C)CCN(C(=O)OC(C)(C)C)CC2)c(OC(F)F)n1 [Ex 4-1, tert-butyl 4-((2-(difluoromethoxy)-6-methylpyridin-3-yl)carbamoyl)-4-(2-isopropylphenyl)piperidine-1-carboxylate] was tested, and the IC50 was 19 nM. Cc1ccc(NC(=O)C2(c3ccccc3C(C)C)CN(CCNCC(=O)O)C2)c(OC(F)F)n1 [Ex 11-80, (2-(3-((2-(difluoromethoxy)-6-methylpyridin-3-yl)carbamoyl)-3-(2-isopropylphenyl)azetidin-1-yl)ethyl)glycine] gave an IC50 of 297 nM. For COCCN1CCC(CC(=O)N2CC(C(=O)Nc3ccc(C)nc3OC(F)F)(c3ccccc3C(C)C)C2)CC1 [Ex 12-139, N-(2-(difluoromethoxy)-6-methylpyridin-3-yl)-3-(2-isopropylphenyl)-1-(2-(1-(2-methoxyethyl)piperidin-4-yl)acetyl)azetidine-3-carboxamide], the IC50 was 165 nM. Work on Cc1ccc(NC(=O)C2(c3ccccc3C(C)C)CN(CCO)C2)c(OC(F)F)n1 [Ex 11-2, N-(2-(difluoromethoxy)-6-methylpyridin-3-yl)-1-(2-hydroxyethyl)-3-(2-isopropylphenyl)azetidine-3-carboxamide] yielded an IC50 of 5 nM. Cc1ccc(NC(=O)C2(c3ccccc3C(C)C)CN(CC3(C(=O)O)CC3)C2)c(OC(F)F)n1 [Ex 11-27, 1-((3-((2-(difluoromethoxy)-6-methylpyridin-3-yl)carbamoyl)-3-(2-isopropylphenyl)azetidin-1-yl)methyl)cyclopropane-1-carboxylic acid] was tested, and the IC50 was 38 nM. Compound Cc1ccc(NC(=O)C2(c3ccccc3C3CCCCC3)CN(C(=O)CC(C)(C)C(=O)O)C2)c(OC(F)F)n1 [Ex 31-5, 4-(3-(2-cyclohexylphenyl)-3-((2-(difluoromethoxy)-6-methylpyridin-3-yl)carbamoyl)azetidin-1-yl)-2,2-dimethyl-4-oxobutanoic acid] has an IC50 of 14 nM. In the case of CC(C)c1ccccc1C1(C(=O)Nc2cc(F)cnc2OC(F)F)CN(C(=O)CC(C)(C)C(=O)O)C1 [Ex 12-87, 4-(3-((2-(difluoromethoxy)-5-fluoropyridin-3-yl)carbamoyl)-3-(2-isopropylphenyl)azetidin-1-yl)-2,2-dimethyl-4-oxobutanoic acid], the IC50 is reported as 41 nM. Work on COc1cc(Br)cnc1NC(=O)C1(c2ccccc2C(C)C)CN(C(=O)CC(C)(C)C(=O)O)C1 [Ex 79-5, 4-(3-((5-bromo-3-methoxypyridin-2-yl)carbamoyl)-3-(2-isopropylphenyl)azetidin-1-yl)-2,2-dimethyl-4-oxobutanoic acid] yielded an IC50 of 104 nM. Work on Cc1ccc(NC(=O)C2(c3ccccc3C(C)C)CN(c3nccc(C(=O)O)n3)C2)c(OC(F)F)n1 [Ex 18-15, 2-(3-((2-(difluoromethoxy)-6-methylpyridin-3-yl)carbamoyl)-3-(2-isopropylphenyl)azetidin-1-yl)pyrimidine-4-carboxylic acid] yielded an IC50 of 47 nM. Cc1ccc(NC(=O)C2(c3ccccc3C(C)C)CN(CC3(C(=O)O)COC3)C2)c(OC(F)F)n1 [Ex 11-91, 3-((3-((2-(difluoromethoxy)-6-methylpyridin-3-yl)carbamoyl)-3-(2-isopropylphenyl)azetidin-1-yl)methyl)oxetane-3-carboxylic acid] showed an IC50 of 46 nM. Cc1ccc(NC(=O)C2(c3ccccc3C(C)C)CCNCC2)c(OC(F)F)n1 [Ex 4, N-(2-(difluoromethoxy)-6-methylpyridin-3-yl)-4-(2-isopropylphenyl)piperidine-4-carboxamide] gave an IC50 of 8 nM. For Cc1ccc(NC(=O)C2(c3ccccc3C(C)C)CN(C(=O)CCOCC(=O)O)C2)c(OC(F)F)n1 [Ex 12-110, 2-(3-(3-((2-(difluoromethoxy)-6-methylpyridin-3-yl)carbamoyl)-3-(2-isopropylphenyl)azetidin-1-yl)-3-oxopropoxy)acetic acid], the IC50 was 66 nM.
